According to patent US8703786B2, “Etravirine formulations and uses thereof” (priority 2011, dated 2014):
Values after ≈ are worked out from the molar mass of the structure shown. Like-named read-outs stand apart in the source and are kept apart here.

Tests used:
plasma proteins = settings: cited from earlier work
p-gp = p-gp (Homo sapiens, UniProt P08183); settings: in vitro; read-out: apparent IC50 (inhibitor of p-gp); cited from earlier work
[1] = cited from earlier work
[2] = cited from earlier work; for Biopharmaceutics Classification System class: low water solubility and permeability
[3] = Solubility of etravirine in various media by phase solubility analysis (HPLC-UV); assay type: physicochemical; settings: for solubility at 72 h: thermodynamic from solid
Description: The solubility of etravirine was determined in water, various oils and some organic solvents by phase solubility analysis. Excess drug was added into 20 ml screw-capped scintillation vials containing 5 ml of the tested solvents. The vials were rotated end-over-end at a constant speed on shaker (EBERBACH Corporation, Ann Arbor, Mich.) at room temperature for 3 days (72 hours). The samples were then subjected to centrifugation on a laboratory centrifuge at 13,000 rpm for 15 minutes. Aliquot of the supernatant was diluted with DMSO to the proper concentration before they were analyzed by high-performance liquid chromatography (HPLC) using UV detector.
The HPLC system involved Waters 600 pump, 2487 UV detector and 717 plus auto sampler (Waters Corporation, Milford, Mass.). Separations were done on a 4.6×150 mm, 3.5 μm XTerra MS-C18 column (Waters Corporation, Milford, Mass.). The flow rate was set at 1 ml/min and the wavelength at 304 nm. Chromatographic data acquisition, peak integration and quantification were performed using the Empower software package by Waters Corporation. Mobile phase solution A consisted of 20 mM potassium dihydrogen phosphate aqueous solution and solution B consisted of acetonitrile (40% solution A+60% solution B). pH was adjusted to 3.2 using phosphoric acid. Solvents were regularly prepared prior to each series of analysis.

[4] = Pharmacokinetic / oral bioavailability study in rats (LC-MS/MS of plasma); assay type: in vivo; settings: male, Sprague-Dawley, rat
Description: Male Sprague-Dawley rats (250-350 g, Harlan Laboratory Inc., Indianapolis, Ind.) were housed in stainless steel cages and had free access to food and water. They were acclimated to the animal care facility for at least 7 days before the start of the study. To facilitate the withdrawal of timed, multiple blood samples from each animal, the right jugular vein of each animal was cannulated one day prior to drug administration. The cannulas were flushed daily with 0.5 mL sterile heparinized saline (100 units/ml). Under ketamine:acetopromazine:xylazine (50:3.3:3.3 mg/kg ip) anesthesia, silicone elastomer tubing (0.02×0.037 in) was inserted into the jugular vein, secured with a silk suture, and exteriorized in the dorsal infrascapular area. The surgical incision was prophylactically treated with nitrofurazone wound powder and closed with surgical staples.
Animals were allowed free access to food and water at all times. The jugular veins of the rats were cannulated under anesthesia the day before the study. All in vivo studies were initiated between 8:00 am and 9:00 am to eliminate possible circadian variation. The animals were fasted overnight with water allowed ad libitum before oral dosing.
The in vivo study consists of four rat groups. […] The second group is a reference group (n=5) which was given an oral 200 mg/kg administration of a suspension of the commercial Intelence® tablets in 1% Tween 80. […] Oral administration was performed using an animal feeding needle (18 in.×3 in. W; 2¼ mm Ball). Multiple blood samples (0.25 mL) were collected (from the jugular vein cannula) immediately before dosing and at 0.5, 1, 1.5, 2, 3, 4, 5, 6, 8, 10 and 24 hours after dosing. An aliquot of each plasma sample was stored at −70° C. pending LC-MS/MS assay.
Etravirine concentrations in rat plasma was analyzed using a sensitive and accurate liquid chromatographic-tandem mass spectrometry (LC-MS/MS) method developed in the laboratory (10). […] The column effluent was monitored using a 3200 QTRAP® mass spectrum, which is a hybrid triple quadruple linear ion trap equipped with a Turbolonspray ion source. […]

Sequence of p-gp (P08183 whole entry): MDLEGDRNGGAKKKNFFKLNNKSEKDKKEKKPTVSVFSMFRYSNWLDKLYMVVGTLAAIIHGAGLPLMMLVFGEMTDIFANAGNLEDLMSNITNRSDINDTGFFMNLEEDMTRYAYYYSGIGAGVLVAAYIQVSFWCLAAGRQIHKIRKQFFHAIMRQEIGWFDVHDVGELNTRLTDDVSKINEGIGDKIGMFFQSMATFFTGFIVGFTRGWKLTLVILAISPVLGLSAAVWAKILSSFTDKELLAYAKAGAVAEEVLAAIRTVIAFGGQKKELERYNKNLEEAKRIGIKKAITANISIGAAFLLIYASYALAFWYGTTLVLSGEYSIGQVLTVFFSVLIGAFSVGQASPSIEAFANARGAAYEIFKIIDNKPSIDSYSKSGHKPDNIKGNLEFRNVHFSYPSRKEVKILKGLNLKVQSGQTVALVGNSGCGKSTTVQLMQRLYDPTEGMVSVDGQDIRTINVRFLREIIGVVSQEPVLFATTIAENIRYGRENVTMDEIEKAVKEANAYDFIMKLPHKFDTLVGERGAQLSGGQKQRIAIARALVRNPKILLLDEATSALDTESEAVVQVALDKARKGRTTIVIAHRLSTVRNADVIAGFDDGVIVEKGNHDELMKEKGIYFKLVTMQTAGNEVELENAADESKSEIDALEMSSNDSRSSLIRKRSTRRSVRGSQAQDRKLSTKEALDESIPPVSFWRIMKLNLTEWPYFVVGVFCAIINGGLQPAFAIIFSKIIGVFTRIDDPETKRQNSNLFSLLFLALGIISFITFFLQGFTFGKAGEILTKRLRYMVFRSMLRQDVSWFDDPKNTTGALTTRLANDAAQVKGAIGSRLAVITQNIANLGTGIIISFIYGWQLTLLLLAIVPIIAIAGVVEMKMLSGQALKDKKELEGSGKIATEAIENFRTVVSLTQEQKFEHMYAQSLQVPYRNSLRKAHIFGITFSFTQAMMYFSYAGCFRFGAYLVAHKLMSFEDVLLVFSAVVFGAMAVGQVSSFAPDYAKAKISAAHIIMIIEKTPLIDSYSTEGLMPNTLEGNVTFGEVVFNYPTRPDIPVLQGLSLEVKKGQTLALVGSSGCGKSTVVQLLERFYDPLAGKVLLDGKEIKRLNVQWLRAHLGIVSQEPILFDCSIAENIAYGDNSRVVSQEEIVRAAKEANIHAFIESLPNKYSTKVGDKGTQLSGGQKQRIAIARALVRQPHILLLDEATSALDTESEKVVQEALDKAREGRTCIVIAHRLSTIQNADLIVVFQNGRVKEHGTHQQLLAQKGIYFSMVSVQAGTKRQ

Cc1cc(C#N)cc(C)c1Oc1nc(Nc2ccc(C#N)cc2)nc(N)c1Br [Etravirine, 4-[[6-amino-5-bromo-2-[(4-cyanophenyl)amino]-4-pyrimidinyl]oxy]-3,5-dimethyl benzonitrile]
binding to plasma proteins (plasma proteins): highly bound
IC50 (p-gp): 24.2 µM
time of median peak concentration ([1]; fasted oral administration): approximately 4.0 hours
terminal elimination half-life in plasma ([1]; in vivo): 30 to 40 h
solubility in PEG 400 reported in the scientific literature ([2]; PEG 400): 74000 µg/mL (≈ 170 mM)
ionization constant (pka) [2]: 3.75
octanol:water partition coefficient (logP) [2]: greater than 5
Biopharmaceutics Classification System class [2]: class IV
Biopharmaceutics Classification System class ([2]; listed as etravirine): class IV
solubility at 72 h ([3]; distilled water, water, read-out: intrinsic solubility): 3.9 µg/mL (≈ 0.00896 mM)
solubility (descriptive) ([3]; in DMSO and 1-methyl-2-pyrrolidinone): freely soluble
solubility (descriptive) ([3]; in PEG 400, Tween 80, Cremophore EL, Tween 20, and Labrasol): soluble
solubility (descriptive) ([3]; in corn oil, soybean oil and olive oil): very slightly soluble
solubility (descriptive) ([3]; in peanut oil, Caproyl 90): slightly soluble
solubility (descriptive) ([3]; in water): practically insoluble
solubility at 72 h ([3]; oil or lipid, Caproyl 90, room temperature, read-out: Drug Solubility): 5420 ± 60 µg/mL (≈ 12.5 mM)
solubility at 72 h ([3]; oil or lipid, Coriander Oil, room temperature, read-out: Drug Solubility): 740 µg/mL (≈ 1.7 mM)
solubility at 72 h ([3]; oil or lipid, Corn Oil, room temperature, read-out: Drug Solubility): 420 µg/mL (≈ 0.965 mM)
solubility at 72 h ([3]; oil or lipid, Labrafac CC, room temperature, read-out: Drug Solubility): 1040 ± 10 µg/mL (≈ 2.39 mM)
solubility at 72 h ([3]; oil or lipid, Lavender Oil, room temperature, read-out: Drug Solubility): 1230 µg/mL (≈ 2.83 mM)
solubility at 72 h ([3]; oil or lipid, Linseed Oil, room temperature, read-out: Drug Solubility): 790 µg/mL (≈ 1.81 mM)
solubility at 72 h ([3]; oil or lipid, Mineral Oil, room temperature, read-out: Drug Solubility): 4 µg/mL (≈ 0.00919 mM)
solubility at 72 h ([3]; oil or lipid, Olive Oil, room temperature, read-out: Drug Solubility): 220 µg/mL (≈ 0.505 mM)
solubility at 72 h ([3]; oil or lipid, Paraffin Oil, room temperature, read-out: Drug Solubility): 9 µg/mL (≈ 0.0207 mM)
solubility at 72 h ([3]; oil or lipid, Peanut Oil, room temperature, read-out: Drug Solubility): 2190 µg/mL (≈ 5.03 mM)
solubility at 72 h ([3]; oil or lipid, Pluro oleique CC 497, room temperature, read-out: Drug Solubility): 1040 ± 20 µg/mL (≈ 2.39 mM)
solubility at 72 h ([3]; oil or lipid, Soybean Oil, room temperature, read-out: Drug Solubility): 310 µg/mL (≈ 0.712 mM)
solubility at 72 h ([3]; organic solvent or mixture, 1-methyl-2-pyrrolidinone, room temperature, read-out: Drug Solubility): 458000 µg/mL (≈ 1050 mM)
solubility at 72 h ([3]; organic solvent or mixture, Cremophore EL, room temperature, read-out: Drug Solubility): 46000 ± 690 µg/mL (≈ 106 mM)
solubility at 72 h ([3]; organic solvent or mixture, Labrasole, room temperature, read-out: Drug Solubility): 61000 µg/mL (≈ 140 mM)
solubility at 72 h ([3]; organic solvent or mixture, PEG 400, room temperature, read-out: Drug Solubility): 71600 µg/mL (≈ 164 mM)
solubility at 72 h ([3]; organic solvent or mixture, Tween 20, room temperature, read-out: Drug Solubility): 55800 ± 870 µg/mL (≈ 128 mM)
solubility at 72 h ([3]; organic solvent or mixture, Tween 80, room temperature, read-out: Drug Solubility): 49700 ± 410 µg/mL (≈ 114 mM)
solubility at 72 h ([3]; Water, room temperature, read-out: Drug Solubility): 3.97 µg/mL (≈ 0.00912 mM)
AUC ([4]; IV 2.5 mg/kg): 1660 ± 498 ng·h/mL
Cmax ([4]; IV 2.5 mg/kg (solution in DMSO)): 2360 ± 1120 ng/mL
half-life ([4]; IV 2.5 mg/kg, read-out: T1/2 (terminal biological half-life) (converted)): 1.14 ± 0.91 h
